Structures can show the parent of a compound that is named as a salt.
Legend:
[1] = in the presence of iron (III)
[2] = Stability of urea on exposure to higher temperature; type: physicochemical; conditions: 180° C. for 8 h
Experimental: In order to assess the stability of synthetic acids containing urea, the stability of urea was tested by only considering its exposure to higher temperature. Urea 50% diluted with 50% seawater @ 180° C. for 8 h. […] This confirms that synthetic acids containing urea have decreasing stability when heated above 90° C. and are less desirable to use than compositions according to the present invention which have stability when exposed to temperatures above 200° C.

observation after exposure to high temperature [2] | pH after exposure to high temperature [2] | pH before exposure to high temperature [2] | Compound | pH of full precipitation [1]
– | – | – | Cl [HCl, hydrochloric acid] | approximately 2.5
strong ammonia smell | 9.44 | 7.61 | Urea [Urea 50% diluted with 50% seawater] | –
